Measured values taken from patent US20180271470A1, “METHODS FOR QUANTIFYING PANCREATIC BETA CELL FUNCTION AND MASS PROPERTIES WITH RADIOMANGANESE POSITRON EMISSION TOMOGRAPHY” (Wisconsin Alumni Research Foundation, priority 2017, published 2018).

Experiments:
[1] = OLINDA dosimetry calculations for Mn-51 and daughter Cr-51; set-up: species or system human; settings: OLINDA input
Description: Due to the rapid blood clearance of Mn^2+, OLINDA (Organ Level INternal Dose Assessment) dosimetry calculations were performed assuming instant compartment localization with organ activity fractions equal to those measured by ex vivo biodistribution herein. Based on the previously measured lengthy organ residence times of Mn^2+, it was also assumed that the effective organ clearance half-life (Ter) was equal to the radioactive half-life of Mn-51 (t1/2: 45.6 min). It was also assumed that Mn-51 injections were 100% radionuclidically pure. In regards to the daughter isotope, Cr-51 (t1/2: 27.7 d), it was assumed that the activity remained in same organ compartments as the parent Mn-51 biodistribution without biological clearance. Standard radiation weighting factors were used (γ=1, β=1). Based on these assumptions, effective dose (ED) and effective dose equivalent (EDE) (units of mSv/MBq) were calculated for a standard adult male and female.

[2] = system: pancreatic uptake of ^52Mn^2+; assay: One hour biodistribution of ^52Mn^2+ in anesthetized (1% isoflurane) or awake mice; assay type: in vivo; settings: 1% isoflurane vs awake, 1 h post injection, regardless of administration regime or glucose stimulation
Description: Previous reports have shown that most volatile anesthetics, including isoflurane, impair insulin secretion by inhibiting the deactivation of KATP channels. Plausibly, the observed decrease in pancreatic uptake of ^52Mn^2+ resulted from mice being anesthetized through the full extent of the studies during the dynamic PET scans. To investigate the impact of isoflurane anesthesia on pancreatic uptake, one hour post injection biodistribution experiments were performed under different administration conditions in either anesthetized (1% isoflurane) or awake mice.

[3] = ^52Mn^2+ PET and biodistribution in STZ type-1 diabetes model; assay type: in vivo, ICR mice; settings: ICR female mice, single STZ 180 mg/kg IP, four days after induction
Description: Type 1 diabetes was induced in female ICR mice via a single IP injection of 180 mg/kg streptozotocin (STZ; MP Biomedical, LLC, Santa Ana, Calif.), a toxin that selectively destroys pancreatic beta cell. The injectable STZ solution (12.5 mg/mL) was prepared freshly in phosphate buffered saline (PBS). The weight of each mouse was measured daily, and blood glucose levels were recorded every other day with a glucometer (TRUEresult, Trividia Health Inc., Fort Lauderdale, Fla.) using blood samples collected from the tail vein. Mice were considered diabetic after two consecutive blood glucose readings above 250 mg/dL and were used for PET imaging studies one week after the injection of STZ. To evaluate ^52Mn^2+ pancreatic uptake on diabetic mice, 0.74 MBq (20 μCi) of activity were administered IV and static PET images recorded one hour after administration of the tracer. Ex vivo biodistribution was carried out following PET acquisition.

[4] = system: isolated ob/ob mouse islets; assay: Uptake of ^52Mn^2+ in isolated islets under stimulatory or inhibitory conditions; assay type: cell-based; settings: 15 min incubation
Description: Mouse pancreatic islets were isolated by collagenase digestion. Briefly, mice were placed under shallow anesthesia and sacrificed via cervical dislocation. The mouse common bile duct was cannulized and 3-5 mL of an ice-cold solution containing type XI collagenase (0.5 mg/mL; Sigma Aldrich, St. Louis, Mo.) and bovine serum albumin (BSA; 0.2 mg/mL; Sigma Aldrich, St. Louis, Mo.) in Hank's balanced salt solution (HBSS; Invitrogen, Carlsbad, Calif.) was injected into the mouse pancreas. After inflation, the pancreas was removed, placed in a glass vial containing 5 mL of the collagenase solution, and incubated in a shaking water bath at 37° C. Samples were digested for approximately 30 min after which the digests were centrifuged at 50×g for 2 min and islet pellets were washed three times with 30 mL of an ice-cold BSA (0.2 mg/mL) in HBSS solution. The pellet was resuspended and islets handpicked into 35 mm petri dishes. Following isolation, islets were placed in RPMI1640 media supplemented with penicillin (100 U/mL; Invitrogen), streptomycin (100 μg/mL; Invitrogen), and FBS [10% (wt/vol); Sigma] and incubated overnight at 37° C. in a 5% CO2 atmosphere.
The uptake of ^52Mn^2+ by murine islets of Langerhans was determined under several stimulatory or inhibitory conditions. Batches of 50 islets were transferred into 0.45 μm filtered bottom 1 mL centrifuge vials (Thermo Fisher Scientific, Grand Island, N.Y.), 500 μL of Krebs-Ringer buffer (KRB: 118 mM NaCl, 5.4 mM KCl, 2.4 mM CaCl, 1.2 mM MgSO4, 1 mM […], 20 mM HEPES; pH 7.4) containing a low glucose concentration (1 mM D-glucose) were added and the islets incubated for 30 min at 37° C. After removing the supernatant following centrifugation at 50×g for 5 min, 250 μL of KRB containing glucose, diazoxide (50 μM; Tocris Biosciences, Bristol, UK), or tolbutamide (250 μM; Selleckchem, Houston, Tex.) were added, and the vials were spiked with 370 kBq (10 μCi) of ^52Mn^2+. After 15 min of incubation, the solutions were filtered and islets were washed three times with KRB. The ^52Mn^2+ radioactivity in the islet pellets were measured in an automated gamma counter (Perkin Elmer).

[5] = system: ^52Mn^2+ pancreatic uptake; assay: Pharmacological manipulation of ^52Mn^2+ pancreatic uptake in vivo (PET and biodistribution); set-up: species or system ICR mice
Description: To investigate the specificity of ^52Mn^2+ for beta cells, a series of studies were performed where ^52Mn^2+ uptake was manipulated through the pharmacologic stimulation or inhibition of the insulin secretory pathway. In these experiments, 0.74-1.85 MBq (20-50 μCi) of ^52Mn^2+ was administered IV into either female ICR or C57BL/6J mice and static PET scans were acquired at one hour post injection. During tracer administration, mice were awake. Mice were only anaesthetized by isoflurane (1%) immediately before PET imaging.
To corroborate the correlation between ^52Mn^2+ pancreatic uptake and the mechanism of insulin release in beta cells, the insulin secretory pathways were stimulated in vivo using glucose and glibendamide (Tocris Biosciences, Bristol, UK), which promotes insulin release in beta cells via blockade of ATP-sensitive potassium channel (KATP). Mice were injected intraperitoneally (IP) with 100 μL of glucose (1 g/kg) or glucose (1 g/kg)+glibenclamide (5 mg/kg) in PBS, 15 min before the IV injection of 0.74-1.85 MBq (20-50 μCi)^52Mn^2+. Static PET scans were acquired one hour after the injection of the radiotracer, after which ex vivo biodistribution was performed.
Whole-body PET scans were acquired at one hour post injection, after which ex vivo biodistribution was performed.

SMILES: [51Cr] [Cr-51]
- Number of disintigrations, Total Body ([1]; Total Body): 7.20E+02 MBq-h/MBq
- Number of disintigrations, Adrenals ([1]; source organ Adrenals): 0.00E+00 MBq-h/MBq
- Number of disintigrations, Brain ([1]; source organ Brain): 3.93E+00 MBq-h/MBq
- Number of disintigrations, Breasts ([1]; source organ Breasts): 0.00E+00 MBq-h/MBq
- Number of disintigrations, Cortical Bone ([1]; source organ Cortical Bone): 7.48E−01 MBq-h/MBq
- Number of disintigrations, Gallbladder Contents ([1]; source organ Gallbladder Contents): 0.00E+00 MBq-h/MBq
- Number of disintigrations, Heart Contents ([1]; source organ Heart Contents): 0.00E+00 MBq-h/MBq
- Number of disintigrations, Heart Wall ([1]; source organ Heart Wall): 2.10E+01 MBq-h/MBq
- Number of disintigrations, Kidneys ([1]; source organ Kidneys): 6.12E+01 MBq-h/MBq
- Number of disintigrations, LLI ([1]; source organ LLI): 0.00E+00 MBq-h/MBq
- Number of disintigrations, Liver ([1]; source organ Liver): 5.58E+01 MBq-h/MBq
- Number of disintigrations, Lungs ([1]; source organ Lungs): 1.49E+01 MBq-h/MBq
- Number of disintigrations, Muscle ([1]; source organ Muscle): 1.93E+00 MBq-h/MBq
- Number of disintigrations, Ovaries ([1]; source organ Ovaries): 0.00E+00 MBq-h/MBq
- Number of disintigrations, Pancreas ([1]; source organ Pancreas): 3.64E+01 MBq-h/MBq
- Number of disintigrations, Red Marrow ([1]; source organ Red Marrow): 0.00E+00 MBq-h/MBq
- Number of disintigrations, Small Intestine ([1]; source organ Small Intestine): 0.00E+00 MBq-h/MBq
- Number of disintigrations, Spleen ([1]; source organ Spleen): 8.12E+00 MBq-h/MBq
- Number of disintigrations, Stomach ([1]; source organ Stomach): 1.23E+01 MBq-h/MBq
- Number of disintigrations, Testes ([1]; source organ Testes): 0.00E+00 MBq-h/MBq
- Number of disintigrations, Thymus ([1]; source organ Thymus): 0.00E+00 MBq-h/MBq
- Number of disintigrations, Thyroid ([1]; source organ Thyroid): 0.00E+00 MBq-h/MBq
- Number of disintigrations, Trabecular Bone ([1]; source organ Trabecular Bone): 0.00E+00 MBq-h/MBq
- Number of disintigrations, ULI ([1]; source organ ULI): 5.70E+00 MBq-h/MBq
- Number of disintigrations, Urinary Bladder Contents ([1]; source organ Urinary Bladder Contents): 0.00E+00 MBq-h/MBq
- Number of disintigrations, Uterus/Uterine Wall ([1]; source organ Uterus/Uterine Wall): 0.00E+00 MBq-h/MBq

SMILES: FC(F)OC(Cl)C(F)(F)F (centres unmarked) [Isoflurane]
- effect on accumulation of ^52Mn^2+ in the pancreas [2]: significantly inhibited

SMILES: CN(N=O)C(=O)N[C@@H]1[C@@H](O)[C@H](O)[C@@H](CO)O[C@@H]1O [STZ, reference compound]
- blood glucose after induction [3]: > 250 mg/dL

SMILES: CC1=NS(=O)(=O)c2cc(Cl)ccc2N1 [diazoxide, 7-Chloro-3-methyl-4H-1,2,4-benzothiadiazine 1,1-dioxide]
- effect on glucose-stimulated ^52Mn^2+ uptake by islets ([4]; diazoxide 50 μM added to 10 mM glucose): blocked
- decline in ^52Mn^2+ pancreatic uptake vs control ([5]; 20 mg/kg IP 10-15 min before IV ^52Mn^2+ bolus, PET 1 h post injection): 44%
- pancreatic ^52Mn^2+ uptake after drug (PET quantification) ([5]; 20 mg/kg IP 10-15 min before IV ^52Mn^2+ bolus, PET 1 h post injection, control 5.13±0.36 SUV): 2.85±0.92 SUV
- effect on PET signal within the pancreas ([5]; 20 mg/kg IP before ^52Mn^2+ bolus): significant (P<0.0001) abrogation

SMILES: COc1ccc(Cl)cc1C(=O)NCCc1ccc(S(=O)(=O)NC(=O)NC2CCCCC2)cc1 [glibenclamide]
- effect on pancreatic SUV values ([5]; glibenclamide 5 mg/kg IP (with glucose 1 g/kg) 15 min before ^52Mn^2+, 1 h post injection): significant enhancement

SMILES: OC[C@H]1OC(O)[C@H](O)[C@@H](O)[C@@H]1O (some centres unmarked) [glucose]
- effect on ^52Mn^2+ uptake by islets ([4]; 10 mM glucose vs 1 mM glucose): significantly enhanced

SMILES: CCCCNC(=O)NS(=O)(=O)c1ccc(C)cc1 [tolbutamide]
- effect on ^52Mn^2+ retention by islets ([4]; glucose and tolbutamide 250 μM): significantly higher
